Assay [1] addresses T1, Adrenergic receptor alpha-1 (Rattus norvegicus, UniProt P15823+P23944+P43140).
T1 sequence (P15823 whole entry): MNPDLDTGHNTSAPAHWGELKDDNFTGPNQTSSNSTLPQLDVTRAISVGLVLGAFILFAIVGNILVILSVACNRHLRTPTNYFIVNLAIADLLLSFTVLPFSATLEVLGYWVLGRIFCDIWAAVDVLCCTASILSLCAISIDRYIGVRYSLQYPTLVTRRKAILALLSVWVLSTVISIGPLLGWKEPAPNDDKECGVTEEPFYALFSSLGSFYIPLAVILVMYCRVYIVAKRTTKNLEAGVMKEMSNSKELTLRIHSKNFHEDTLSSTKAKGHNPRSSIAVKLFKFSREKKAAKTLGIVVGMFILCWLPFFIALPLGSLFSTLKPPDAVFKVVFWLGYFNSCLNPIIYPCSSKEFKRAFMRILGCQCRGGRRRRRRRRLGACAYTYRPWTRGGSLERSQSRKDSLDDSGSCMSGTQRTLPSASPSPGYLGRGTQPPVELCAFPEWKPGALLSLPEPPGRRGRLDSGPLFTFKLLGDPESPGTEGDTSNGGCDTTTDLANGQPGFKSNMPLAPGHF
T1 sequence (P23944 whole entry): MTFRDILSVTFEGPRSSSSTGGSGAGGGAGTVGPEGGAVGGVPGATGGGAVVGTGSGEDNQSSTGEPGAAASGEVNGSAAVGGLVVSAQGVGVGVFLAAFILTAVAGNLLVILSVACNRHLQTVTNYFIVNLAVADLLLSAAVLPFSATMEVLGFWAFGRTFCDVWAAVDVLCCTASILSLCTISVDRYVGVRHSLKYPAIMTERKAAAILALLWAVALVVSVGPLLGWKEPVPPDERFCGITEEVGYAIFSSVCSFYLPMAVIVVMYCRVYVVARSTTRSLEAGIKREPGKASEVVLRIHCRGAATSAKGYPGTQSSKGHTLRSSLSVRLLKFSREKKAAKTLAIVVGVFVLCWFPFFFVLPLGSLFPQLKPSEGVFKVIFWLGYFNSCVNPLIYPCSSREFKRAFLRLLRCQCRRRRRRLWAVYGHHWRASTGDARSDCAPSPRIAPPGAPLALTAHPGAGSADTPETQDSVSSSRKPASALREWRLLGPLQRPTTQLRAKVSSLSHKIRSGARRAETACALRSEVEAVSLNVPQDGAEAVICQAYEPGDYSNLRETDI
T1 sequence (P43140 whole entry): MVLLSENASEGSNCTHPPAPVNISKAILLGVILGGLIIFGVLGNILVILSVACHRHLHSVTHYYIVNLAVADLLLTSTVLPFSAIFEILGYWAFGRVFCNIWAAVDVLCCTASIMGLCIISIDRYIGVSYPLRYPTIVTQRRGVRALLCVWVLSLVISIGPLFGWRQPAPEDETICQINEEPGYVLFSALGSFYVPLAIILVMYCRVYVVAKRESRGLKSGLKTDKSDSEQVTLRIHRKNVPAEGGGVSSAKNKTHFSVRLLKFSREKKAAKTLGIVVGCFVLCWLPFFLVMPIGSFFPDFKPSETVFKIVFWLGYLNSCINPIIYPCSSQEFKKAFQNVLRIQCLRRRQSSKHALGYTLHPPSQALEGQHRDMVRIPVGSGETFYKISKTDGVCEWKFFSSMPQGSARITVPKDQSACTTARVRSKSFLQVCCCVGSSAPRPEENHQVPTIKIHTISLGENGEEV
Put plainly: Displacement of [3H]Prazosin from alpha1 adrenergic receptor in Wistar rat cerebral cortex membrane by liquid scintillation counting. The assay is classed as tissue-based.

The test system of assay [2] is Rattus norvegicus. Put plainly: Hypotensive activity in normotensive Wistar rat assessed as decrease in diastolic blood pressure at 0.125 mg/kg, iv up to 60 mins. Further details: dose 0.125 mg/kg. To be noted: Artery. The format is functional, organism-based.
Assay [3] deals with Rattus norvegicus. Put plainly: Hypotensive activity in normotensive Wistar rat assessed as decrease in diastolic blood pressure at 0.25 to 1 mg/kg, iv up to 60 mins. The assay is classed as functional, Artery. Conditions: dose mg/kg 0.25-1. Set-up: scale not given: the % may be the effect or the level left.
In assay [4] the test system is Rattus norvegicus. Nature of the assay: Hypotensive activity in normotensive Wistar rat assessed as decrease in systolic blood pressure at 0.25 to 1 mg/kg, iv up to 60 mins. Further details: scale not given: the % may be the effect or the level left. To be noted: dose mg/kg 0.25-1. The format is functional.
The test system of assay [5] is Rattus norvegicus. Put plainly: Effect on heart rate in anesthetized Wistar rat assessed as decrease in heart rate at 1 mg/kg, iv up to 15mins by electrocardiography. The assay is classed as functional. Set-up: scale not given: the % may be the effect or the level left.
The subject of assay [6] is Rattus norvegicus. Put plainly: Hypotensive activity in normotensive Wistar rat assessed as decrease in systolic blood pressure at 0.125 mg/kg, iv up to 60 mins. To be noted: Artery. The format is functional, organism-based. Further details: dose 0.125 mg/kg.
Assay [7] can be described thus: (§1) Spasmolytic activity in rabbit ileum assessed as decrease in amplitude of contraction at 100 uM measured for 5 mins. Further details: scale not given: the % may be the effect or the level left. The format is functional, Oryctolagus cuniculus.
Assay [8] in a line: (§2) Spasmolytic activity in rabbit ileum assessed as decrease in amplitude of contraction at 10 uM measured for 5 mins. The assay is classed as functional, Oryctolagus cuniculus. Further details: scale not given: the % may be the effect or the level left.
In assay [9] the test system is Rattus norvegicus. Nature of the assay: Hypotensive activity in normotensive Wistar rat assessed as decrease in systolic blood pressure at 0.125 mg/kg, iv up to 30 mins. The assay is classed as functional, organism-based. Set-up: dose 0.125 mg/kg. Conditions: Artery.
Assay [10] is filed under the species Oryctolagus cuniculus. Described as §1. The assay is classed as functional.
Assay [11] relates to Rattus norvegicus. Put plainly: Hypotensive activity in normotensive Wistar rat assessed as decrease in systolic blood pressure at 0.125 to 1 mg/kg, iv up to 60 mins. The assay is classed as functional, organism-based. Conditions: Artery.
Assay [12] is filed under the species Oryctolagus cuniculus. The description is as §2. The assay is classed as functional.
In assay [13] the test system is Rattus norvegicus. Put plainly: Hypotensive activity in normotensive Wistar rat assessed as decrease in diastolic blood pressure at 0.125 mg/kg, iv up to 10 mins. To be noted: Artery. The format is functional, organism-based. Set-up: dose 0.125 mg/kg.
Assay [14] has as its system Rattus norvegicus. Put plainly: Hypotensive activity in normotensive Wistar rat assessed as decrease in diastolic blood pressure at 1 to 5 mg/kg, iv up to 60 mins. The assay is classed as functional, organism-based. To be noted: Artery.
In assay [15] the test system is Rattus norvegicus. Put plainly: Hypotensive activity in normotensive Wistar rat assessed as decrease in diastolic blood pressure at 0.0625 mg/kg, iv up to 60 mins. Conditions: Artery. The format is functional, organism-based. Further details: dose 0.0625 mg/kg.
In assay [16] the test system is Rattus norvegicus. Put plainly: Hypotensive activity in normotensive Wistar rat assessed as decrease in systolic blood pressure at 0.0625 mg/kg, iv up to 60 mins. The assay is classed as functional, organism-based. Set-up: dose 0.0625 mg/kg. Conditions: Artery.
The test system of assay [17] is Rattus norvegicus. Nature of the assay: Hypotensive activity in normotensive Wistar rat assessed as decrease in systolic blood pressure at 0.0312 mg/kg, iv up to 60 mins. The assay is classed as functional, organism-based. Set-up: dose 0.0312 mg/kg. Conditions: Artery.
Assay [18] concerns Rattus norvegicus. Put plainly: Hypotensive activity in normotensive Wistar rat assessed as decrease in diastolic blood pressure at 0.0312 mg/kg, iv up to 60 mins. The format is functional, organism-based. Set-up: dose 0.0312 mg/kg. To be noted: Artery.

Experimental findings from ChEMBL document CHEMBL1154779, “Synthesis and adrenolytic activity of 1-(1H-indol-4-yloxy)-3-(2-(2-methoxy phenoxy)ethylamino)propan-2-ol analogs and its enantiomers. Part 2” (Eur J Med Chem, 2009) are described below.

Active and inactive are the calls of the source. The rule behind the calls is not given here.

`COc1ccccc1OCCNC[C@@H](O)COc1ccc(OC)c2[nH]ccc12` gave a Ki in assay [1] of 0.0609 µM. Besides, the result with Rattus norvegicus [2] and in the assay on Rattus norvegicus [6] was inactive. Besides, the Activity was 13% in the assay with Rattus norvegicus [3], 12% with Rattus norvegicus [4] and 10% in the assay on Rattus norvegicus [5].
Compound `COc1ccccc1OCCNC[C@H](O)COc1ccc(OC)c2[nH]ccc12` registered a Ki in assay [1] of 0.1688 µM. The Activity in assay [7] worked out at 10%; in the assay with Rattus norvegicus [3] it was 13%; with Rattus norvegicus [4] it was 12%; in [8] it was 10%; with Rattus norvegicus [5], 10%. In addition, the outcome with Rattus norvegicus [2] and in the assay with Rattus norvegicus [6] was inactive.
On to `COc1ccccc1OCCNCC(O)COc1c(OC)ccc2[nH]ccc12` (racemic), for which the outcome with Rattus norvegicus [9], in the assay filed under Oryctolagus cuniculus [10], in the assay with Rattus norvegicus [11], with Rattus norvegicus [13] and in the assay on Rattus norvegicus [14] was Active. In assay [1], the Ki came to 0.0211 µM. In addition, the figures for the Activity in the assay on Rattus norvegicus [3] and with Rattus norvegicus [4] were 8% and 7%, respectively. Moreover, in the assay filed under Oryctolagus cuniculus [12], the result was inactive.
With `COc1ccccc1OCCNC[C@@H](O)COc1c(OC)ccc2[nH]ccc12`, the Ki in assay [1] came to 0.0458 µM. The outcome in the assay filed under Oryctolagus cuniculus [10], in the assay with Rattus norvegicus [11], in the assay filed under Oryctolagus cuniculus [12] and with Rattus norvegicus [14] was Active. The result in the assay with Rattus norvegicus [15] and with Rattus norvegicus [16] was inactive.
Turning to `COc1ccccc1OCCNC[C@H](O)COc1c(OC)ccc2[nH]ccc12`, the outcome in the assay on Rattus norvegicus [17] and in the assay on Rattus norvegicus [18] was inactive. The compound further showed a Ki in [1] of 0.0113 µM. Further, the result in the assay filed under Oryctolagus cuniculus [10], with Rattus norvegicus [11], in the assay listed under Oryctolagus cuniculus [12] and in the assay on Rattus norvegicus [14] was Active.
As to `COc1ccccc1OCCNCC(O)COc1ccc(OC)c2[nH]ccc12` (racemic), the Ki in assay [1] is 0.0758 µM. The outcome in the assay listed under Oryctolagus cuniculus [10], with Rattus norvegicus [2], in the assay filed under Oryctolagus cuniculus [12] and in the assay on Rattus norvegicus [6] was inactive. For the same compound, the Activity in assay [7] came to 10%; in the assay with Rattus norvegicus [3] it was 13%; in the assay with Rattus norvegicus [4], 12%; in [8], 10%; with Rattus norvegicus [5], 10%.
